Where “and” joins values, the source holds several entries; their conditions need not be identical. Identical values can stand only once.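 Following 48 hours of exposure in 96-well plates, responses at five concentrations were used to interpolate endpoints linearly. Abbreviation: GI50, concentration required for 50% inhibition of growth. Definition used: TGI = concentration required for complete inhibition of growth.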
Columns and labels:
Assay in all cases: inhibition of tumour cell growth, NCI panel, 48 h
[1] = system: PC-3 prostate
[2] = system: MOLT-4 leukemia
[3] = system: MDA-MB-435
[4] = system: SK-OV-3 ovarian
[5] = system: SK-MEL-5 melanoma
[6] = system: SN12C renal
[7] = system: BT-549 breast
[8] = system: OVCAR-3 ovarian
[9] = system: NCI-H460 lung
[10] = system: U251 CNS

Row | SMILES | GI50 [1] | TGI [1] | GI50 [2] | TGI [2] | GI50 [3] | TGI [3] | GI50 [4] | TGI [4] | GI50 [5] | TGI [5] | GI50 [6] | TGI [6] | GI50 [7] | TGI [7] | GI50 [8] | TGI [8] | GI50 [9] | TGI [9] | GI50 [10] | TGI [10]
1 | C=CCCC(O)c1ccc(C(O)CCCCCCCCCCCC)o1 (stereo not given) | 22.8 µM | 47.8 µM | 7.16 µM | 38.3 µM | 17.8 µM | 34.7 µM | > 100 µM | > 100 µM | 20.1 µM | 35.7 µM | 18.3 µM | 34.2 µM | 19.9 µM | 42.2 µM | 18.7 µM | 35.7 µM | > 100 µM | > 100 µM | 17.5 µM | 31.9 µM
2 | Cc1ccc(Cl)cc1Nc1nc(C(F)(F)F)ccc1C(=O)N/N=C/c1c(Cl)cccc1Cl | 0.554 µM | > 34.3 µM | 0.596 µM | 4.93 µM | 2.15 µM | 11.6 µM | 0.899 µM | 4.76 µM | 1.52 µM | 3.82 µM | 1.2 µM | 12.2 µM | 1.62 µM | 7.09 µM | 0.285 µM | 2.7 µM | 0.578 µM | 4.81 µM | 0.471 µM | 5.78 µM
3 | CC1(C)CC(=O)C(C(c2cccc(O)c2O)C2C(=O)CC(C)(C)CC2=O)C(=O)C1 | – | > 100 µM | – | > 100 µM | – | > 100 µM | – | > 100 µM | – | > 100 µM | – | > 100 µM | – | > 100 µM | – | > 100 µM | – | > 100 µM | – | > 100 µM
4 | O=S(=O)(O)c1ccc(Cl)cc1.[Cd] | 25.2 µM | 66.3 µM | 79.2 µM | > 100 µM | 20.5 µM | 63 µM | > 100 µM | > 100 µM | 4.58 µM | 16.9 µM | > 100 µM | > 100 µM | 1.94 µM | 3.9 µM | 18.5 µM | 44.4 µM | 4.61 µM | 25.3 µM | 34 µM | > 100 µM
5 | CN(CCCCCl)P(=O)(OCc1ccc([N+](=O)[O-])o1)C(F)(F)c1ccc(CC(=O)N[C@@H](CC(=O)O)C(=O)N[C@@H](Cc2ccc(C(F)(F)P(=O)(OCc3ccc([N+](=O)[O-])o3)N(C)CCCCCl)cc2)C(N)=O)cc1 (stereo not given in full) | 80.5 µM | > 100 µM | 31.4 µM | 91.2 µM | 49.1 µM | > 100 µM | > 100 µM | > 100 µM | 43.8 µM | > 100 µM | > 100 µM | > 100 µM | 18.8 µM | 44.4 µM | 37.6 µM | > 100 µM | > 100 µM | > 100 µM | 50.8 µM | > 100 µM
6 | CN(C)CCCNC(=O)c1cc(NC(=O)CCNC(=O)c2ccc3c(c2)C(=O)c2ccccc2C3=O)cn1C | > 100 µM | > 100 µM | 37.4 µM | > 100 µM | > 100 µM | > 100 µM | > 100 µM | > 100 µM | > 100 µM | > 100 µM | > 100 µM | > 100 µM | > 100 µM | > 100 µM | 33.2 µM | > 100 µM | > 100 µM | > 100 µM | 27.1 µM | > 100 µM
7 | O=C(O)c1cc(N/C=C2\C(=O)c3ccccc3OC2O)ccc1O (stereo not given) | 29.4 µg/mL | 120 µg/mL | 15.3 µg/mL | 72 µg/mL | 23.3 µg/mL | 79.2 µg/mL | 29.3 µg/mL | 75.1 µg/mL | 18 µg/mL | 39.3 µg/mL | 25.5 µg/mL | 97.3 µg/mL | 15 µg/mL | 71.8 µg/mL | 14.6 µg/mL | 47.2 µg/mL | 34 µg/mL | 81.3 µg/mL | 18 µg/mL | 43.6 µg/mL
8 | CCCCCCCCCCCCOC1C(CNC(=O)C2OC3OC(C)(C)OC3C2NC(=O)CN2CCN(c3ccccn3)CC2)OC2OC(C)(C)OC21 (stereo not given) | 1.75 µM | 3.24 µM | 1.86 µM | 4.45 µM | 1.69 µM | 3.36 µM | 5.18 µM | 9.86 µM | 1.7 µM | 3.09 µM | 1.75 µM | 3.24 µM | 1.83 µM | 3.39 µM | 1.54 µM | 3.02 µM | 1.77 µM | 3.38 µM | 1.86 µM | 3.46 µM
9 | Nc1ccccc1/C=N\Nc1ccccc1 | 3.08 µM | > 100 µM | 26.3 µM | > 100 µM | 4.5 µM | > 100 µM | > 100 µM | > 100 µM | 2.69 µM | 7.98 µM | > 100 µM | > 100 µM | 74.1 µM | > 100 µM | 36.2 µM | > 100 µM | 2.35 µM | > 100 µM | > 100 µM | > 100 µM
10 | CC1(C)CC(=O)C2=C(C1)NC(SSC1=C(C#N)C(c3ccc(Br)cc3)C3=C(CC(C)(C)CC3=O)N1)=C(C#N)C2c1ccc(Br)cc1 (stereo not given) | 91.4 µg/mL | > 100 µM and 150 µg/mL | 41.9 µg/mL | > 100 µM and 150 µg/mL | 90.8 µg/mL | > 100 µM and 150 µg/mL | > 150 µg/mL | > 100 µM and 150 µg/mL | > 150 µg/mL | > 100 µM and 150 µg/mL | 71.2 µg/mL | > 100 µM and 150 µg/mL | 28.1 µg/mL | > 100 µM and 52 µg/mL | > 150 µg/mL | > 100 µM and 150 µg/mL | > 150 µg/mL | > 100 µM and 150 µg/mL | > 150 µg/mL | > 100 µM and 150 µg/mL

Source: PubChem BioAssay (NCI)
